The subject of assay [1] is histamine-induced vascular hyperpermeability reaction. Nature of the assay: Rat histamine-induced vascular hyperpermeability reaction (in vivo antihistamine action). To be noted: SD male rat, oral administration 1 hour before intracutaneous histamine, leaked Evans Blue pigment. On the procedure: An SD male rat (SPF) of 180 g in weight was previously fed for one week or more by allowing the rat to take a solid feed and tap water ad libitum, under the environment setting of a temperature of 22° C., humidity of 55% and an artificial illumination of 12 hours a day (light phase 8 am to 8 pm), and the rat was fasted overnight to be used for the experiment. Histamine•dihydrochloride (hereinafter referred to as histamine) and Evans Blue were used by dissolving each in physiological saline upon use. A substance to be tested was dissolved in water for injection or suspended in 0.5% carboxymethyl cellulose sodium, and the rat was orally administered with the solution or suspension (dose volume: 5 mL/kg body weight). After 1 hour from the administration, the physiological saline and the histamine solution were each intracutaneously injected to two locations (20 μg/0.05 ml/location) each on a back part of the rat of which hair was sheared with an electric clipper while anesthetizing with an ether. A 0.5% Evans Blue-containing physiological saline was injected intravenously to the tail of the rat (1 mL/200 g body weight) immediately before the intracutaneous injection of the histamine.
After 30 minutes, the animal was decapitated, and allowed to bleed lethally, and the skin was removed to measure an amount of leaked pigment in the blue-stained portion. The measurement of the amount of leaked pigment was carried out as follows. Skins of the pigment leaking site were cut out at two locations, 1 mL of a 2 mol/L aqueous potassium hydroxide solution was added thereto in a test tube, and the test tube was allowed to stand overnight at 37° C. to dissolve. Thereafter, 6 mL of a 1:3 mixed solution of 0.67 mol/L phosphoric acid and acetone was added to the solution, and the mixture was vigorously shaken for 10 minutes. Thereafter, the mixture was filtered, and the absorbance of the filtrate at 620 nm was measured. The absorbance obtained from the two locations of the sites injected with physiological saline, as blank value, was used for a compensation. The amount of leaked pigment was calculated from the calibration curve of Evans Blue at 620 nm.

Assay [2] concerns the target human histamine H1 receptor (Homo sapiens, UniProt P35367). Nature of the assay: In vitro human histamine H1 receptor binding experiment ([3H]pyrilamine). Particulars: HEK293A cells stably expressing human histamine H1 receptor, [3H]pyrilamine 3 nmol/L, room temperature 60 minutes. The protocol: Recombinant human histamine H1 receptor plasmid (prepared by Invitrogen) was transfected to HEK293A cells with Lipofectamine 2000 (manufactured by Invitrogen). Cells stably expressing human histamine H1 receptor were screened with Geneticin (manufactured by Invitrogen). The cells were continued to be cultured using a Dulbecco's Modified Eagle Medium containing 10% fetal bovine serum, 0.1 mmol/L MEM Non-Essential Amino Acids Solution, 2 mmol/L L-glutamine and 0.7 mg/mL Geneticin in a 5% CO2 incubator at 37° C. The cells stably expressing human histamine H1 receptor were prepared using 50 mmol/L Tris-HCl (pH 7.5) (hereinafter referred to as buffer) containing 0.1% bovine serum albumin, so as to have a concentration of 3×10^6 cells/mL, to give a cell sample preparation. Fifty microliters of the buffer, 50 μl of a test substance solution at various concentrations, and 50 μL of [^3H]pyrilamine solution (final concentration: 3 nmol/L) were added to each of the wells on the 96-well plate, and stirred, and 100 μL of the cell sample preparation was then added thereto (at a concentration of 3×10^5 cells/well) to initiate the reaction.
The cells were incubated at room temperature for 60 minutes, and then filtered on UniFilter GF/C plate (manufactured by Packard) immersed in 0.5% polyethyleneimine using a cell harvester (IH-110, manufactured by INNOTECH CORPORATION), to stop the reaction, and the plate was washed with the buffer. The plate after washing was sufficiently dried, and 20 μL of a scintillator (MaxiLight, manufactured by Hidex) was added thereto, and count per minute (cpm) was measured with a multi-labeled microplate reader (Plate Chameleo II, manufactured by Hidex). The nonspecific binding was cpm in a case where 30 μmol/L pyrilamine was added. The experiments were carried out at n=3, and at least repeated 3 times.

The target of a further assay is T1, cerebral H1 receptor (Mus musculus, UniProt P70174).
T1 construct: the entire brain, except for cerebellum and medulla oblongatae, was rapidly excised; from tissue; host or cells: brain homogenate (without cerebellum and medulla oblongata) of orally dosed ICR male mice
As to the kind of experiment: Murine cerebral H1 receptor occupying content (ex vivo). In kind it is in vivo. Particulars: for ED50: ICR male mouse, oral administration, brain excised after 1 hour, 3H-pyrilamine binding in brain homogenate, larger = lower brain transfer, read-out: ID50 (the source's name); for ID50 (mg/kg)/ ED50 (mg/kg): ID50 of cerebral receptor binding test (Table 20) divided by ED50 of vascular hyperpermeability test (Table 19). On the procedure:
A 6-week-old ICR male mouse was previously fed for one week or more by allowing the mouse to take a solid feed and tap water ad libitum, under the environment setting of a temperature of 22° C., humidity of 55% and an artificial illumination of 12 hours a day, and the mouse was fasted overnight to be used for the experiment. A substance to be tested was dissolved with water for injection or suspended in 0.5% carboxymethyl cellulose solution, and the solution or suspension was orally administered to the mouse (dose volume: 0.1 mL/10 g body weight). After 1 hour from the oral administration, the mouse was decapitated, and the entire brain, except for cerebellum and medulla oblongatae, was rapidly excised. The excised brain tissue was homogenized with Polytron (manufactured by Kinematica) in an ice-cooled 50 mmol/L phosphate buffered saline (pH 7.4, 100 mg/1.9 mL).
To a test tube for reaction (TPX-Tube) were added 180 μL of the brain homogenate, and 10 μL of ^3H-pyrilamine solution (final concentration: 2 nmol/L) and 10 μL of a non-labeled pyrilamine solution (final concentration: 200 μmol/L) or a 50 mmol/L phosphate buffered saline, and the mixture was incubated at room temperature for 45 minutes, and 2.0 mL of an ice-cooled, 50 mmol/L phosphate buffered saline was then added thereto to stop the reaction. The reaction mixture was filtered with a GF/B filter (manufactured by […]), and the […] was placed in a vial and dried overnight at 60 degrees. After drying, 10 mL of a scintillator (AL-1, toluene-based, manufactured by DOJINDO LABORATORIES) was added to the product, and the disintegration per minute (dpm) was measured with a liquid scintillation counter (manufactured by Packard, U.S.A., TRI-CARB 2700TR) (5 minutes/vial).

Chain of human histamine H1 receptor (P35367 whole entry): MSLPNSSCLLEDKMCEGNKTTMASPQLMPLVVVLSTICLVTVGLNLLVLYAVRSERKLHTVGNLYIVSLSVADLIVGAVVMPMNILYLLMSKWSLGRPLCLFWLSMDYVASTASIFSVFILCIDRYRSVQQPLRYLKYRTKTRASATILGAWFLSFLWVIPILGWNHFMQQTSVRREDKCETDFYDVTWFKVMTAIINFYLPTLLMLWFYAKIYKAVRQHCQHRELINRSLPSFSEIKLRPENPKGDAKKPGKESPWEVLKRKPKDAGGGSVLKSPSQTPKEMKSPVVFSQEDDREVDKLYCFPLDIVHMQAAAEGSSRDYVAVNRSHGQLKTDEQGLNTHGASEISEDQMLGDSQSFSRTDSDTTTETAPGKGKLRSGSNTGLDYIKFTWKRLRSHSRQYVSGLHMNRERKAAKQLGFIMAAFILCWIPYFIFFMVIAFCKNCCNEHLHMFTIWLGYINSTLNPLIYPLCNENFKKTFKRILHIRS
T1 sequence (P70174 whole entry): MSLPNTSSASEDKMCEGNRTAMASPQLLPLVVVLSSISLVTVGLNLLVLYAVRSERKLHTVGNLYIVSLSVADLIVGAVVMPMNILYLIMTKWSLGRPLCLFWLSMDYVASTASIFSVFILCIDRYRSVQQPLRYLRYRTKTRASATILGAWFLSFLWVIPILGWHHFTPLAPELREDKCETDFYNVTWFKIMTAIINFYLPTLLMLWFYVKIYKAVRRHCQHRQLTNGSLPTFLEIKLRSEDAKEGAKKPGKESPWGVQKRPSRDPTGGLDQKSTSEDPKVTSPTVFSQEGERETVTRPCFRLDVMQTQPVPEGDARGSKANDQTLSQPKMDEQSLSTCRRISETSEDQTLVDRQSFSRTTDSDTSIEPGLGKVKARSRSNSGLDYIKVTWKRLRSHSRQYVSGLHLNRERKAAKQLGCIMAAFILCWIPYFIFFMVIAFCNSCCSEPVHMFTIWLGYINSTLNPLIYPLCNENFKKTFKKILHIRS

For orientation: IC50 means the midpoint of a concentration-inhibition curve. A high value points to weaker potency. `CN1CCC(=C2c3ccccc3CCc3cc(C=CC(=O)O)sc32)CC1` [Compound 15, 3-[4-(1-Methylpiperidin-4-ylidene)-9,10-dihydro-4H-3-thiabenzo[f]azulen-2-yl]acrylic acid] yielded an ED50 in assay [1] of 0.18 mg/kg. The compound also registered an IC50 in assay [2] of 26.8 nM. Also, on cerebral H1 receptor, the ED50 amounted to 5.6 mg/kg and the “ID50 (mg/kg)/ ED50 (mg/kg)” value is listed as 31.1.

Regarding `CN1CCC(=C2c3ccccc3CCc3sc(C(=O)NCCO)cc32)CC1` [Compound 27, N-(2-Hydroxyethyl) [4-(1-methylpiperidin-4-ylidene)-9,10-dihydro-4H-1-thiabenzo[f]azulen-2-yl]carboxamide], the ED50 in assay [1] worked out at 1.63 mg/kg. Further, the concentration for half-maximal inhibition (IC50) in assay [2] was 52.8 nM. Besides, at cerebral H1 receptor, the ED50 was determined as 55.1 mg/kg and the “ID50 (mg/kg)/ ED50 (mg/kg)” value worked out at 33.8.

`CN1CCC(=C2c3ccccc3CCc3sc(CNC(N)=O)cc32)CC1` [Compound 49, 2-Ureidomethyl-4-(1-methylpiperidin-4-ylidene)-9,10-dihydro-4H-1-thiabenzo[f]azulene]: the ED50 in assay [1] is approximately 1 mg/kg; at cerebral H1 receptor, 33.9 mg/kg. In assay [2], the IC50 was 32.5 nM. Besides, the “ID50 (mg/kg)/ ED50 (mg/kg)” value on cerebral H1 receptor was found to be 33.9.

For `CN1CCC(=C2c3ccccc3OCc3cc(CC(=O)O)sc32)CC1.Cl` [Compound 58, [4-(1-Methylpiperidin-4-ylidene)-4,10-dihydro-9-oxa-3-thiabenzo[f]azulen-2-yl]acetic acid hydrochloride], the ED50 in assay [1] was 0.78 mg/kg. Moreover, in assay [2], the IC50 is 69.3 nM. At cerebral H1 receptor, the ED50 stood at 205 mg/kg and the “ID50 (mg/kg)/ ED50 (mg/kg)” value came out at 263.1.

In assay [1], `COC(=O)Cc1ccc2c(c1)C(=C1CCN(CCO)CC1)c1sccc1CO2.Cl` [Compound 118, Methyl {4-[1-(2-hydroxyethyl)piperidin-4-ylidene]-4,10-dihydro-9-oxa-3-thiabenzo[f]azulen-6-yl}acetate hydrochloride] gave an ED50 of 0.48 mg/kg. The compound further showed an IC50 in assay [2] of 23.6 nM. At cerebral H1 receptor, the ED50 was 24.3 mg/kg and the “ID50 (mg/kg)/ ED50 (mg/kg)” value was 50.6.

In the case of `CN1CCC(=C2c3cc(CCCC(=O)O)ccc3OCc3ccsc32)CC1` [Compound 124, 4-[4-(1-Methylpiperidin-4-ylidene)-4,10-dihydro-9-oxa-3-thiabenzo[f]azulen-6-yl]butyric acid], the ED50 was 0.009 mg/kg in assay [1] and 3.2 mg/kg at cerebral H1 receptor. In assay [2], this compound displayed an IC50 of 46.7 nM. In addition, on cerebral H1 receptor, the “ID50 (mg/kg)/ ED50 (mg/kg)” value came out at 355.6.

The compound `COC(=O)Cc1ccc2c(c1)C(=C1CCN(CC(C)=O)CC1)c1sccc1CO2.Cl` [Compound 167, Methyl {4-[1-(2-oxopropyl)piperidin-4-ylidene]-4,10-dihydro-9-oxa-3-thiabenzo[f]azulen-6-yl}acetate hydrochloride] displayed an ED50 in assay [1] of 0.194 mg/kg. Besides, at cerebral H1 receptor, the ED50 was 35.1 mg/kg and the “ID50 (mg/kg)/ ED50 (mg/kg)” value came to 180.9.

`CC(=O)CN1CCC(=C2c3cc(CC(=O)O)ccc3OCc3ccsc32)CC1` [Compound 168, {4-[1-(2-Oxopropyl)piperidin-4-ylidene]-4,10-dihydro-9-oxa-3-thiabenzo[f]azulen-6-yl}acetic acid]: the ED50 stood at 0.264 mg/kg in assay [1] and 10.4 mg/kg on cerebral H1 receptor. The “ID50 (mg/kg)/ ED50 (mg/kg)” value on cerebral H1 receptor is listed as 39.4.

Consider `CC(=O)CCCN1CCC(=C2c3cc(CC(=O)O)ccc3OCc3ccsc32)CC1` [Compound 170, {4-[1-(4-Oxopentyl)piperidin-4-ylidene]-4,10-dihydro-9-oxa-3-thiabenzo[f]azulen-6-yl}acetic acid], for which the ED50 in assay [1] is 0.614 mg/kg. For the same compound, on cerebral H1 receptor, the ED50 is 70.3 mg/kg and the “ID50 (mg/kg)/ ED50 (mg/kg)” value worked out at 114.5.

Compound `CC(OC(=O)Cc1ccc2c(c1)C(=C1CCNCC1)c1sccc1CO2)OC(=O)OC1CCCCC1.Cl` (stereo not drawn) [Compound 180, 1-Cyclohexyloxycarbonyloxyethyl (4-piperidin-4-ylidene-4,10-dihydro-9-oxa-3-thiabenzo[f]azulen-6-yl)acetate hydrochloride] displayed an ED50 in assay [1] of 1.55 mg/kg. Also, at cerebral H1 receptor, the ED50 is more than 200 mg/kg and the “ID50 (mg/kg)/ ED50 (mg/kg)” value is reported as more than 129.0.

`CC(=O)CCCN1CCC(=C2c3cc(CCCC(=O)O)ccc3OCc3ccsc32)CC1` [Compound 188, 4-{4-[1-(4-Oxopentyl)piperidin-4-ylidene]-4,10-dihydro-9-oxa-3-thiabenzo[f]azulen-6-yl}butyric acid] yielded an ED50 in assay [1] of approximately 0.3 mg/kg. Further, on cerebral H1 receptor, the ED50 was determined as 23 mg/kg and the “ID50 (mg/kg)/ ED50 (mg/kg)” value is given as 76.7.

`CN1CCC(=C2c3cc(SC(C)(C)C(=O)O)ccc3OCc3ccsc32)CC1.Cl` [Compound 190, 2-Methyl-2-[4-(1-methylpiperidin-4-ylidene)-4,10-dihydro-9-oxa-3-thiabenzo[f]azulen-6-ylsulfanyl]propionic acid hydrochloride]: the results for the ED50 (in assay [1]; at cerebral H1 receptor) were 0.419 mg/kg and 73.2 mg/kg, respectively. Further, the “ID50 (mg/kg)/ ED50 (mg/kg)” value at cerebral H1 receptor came to 174.7.

Regarding `CC(=O)CCN1CCC(=C2c3cc(CC(=O)O)ccc3OCc3ccsc32)CC1` [Compound 192, {4-[1-(3-Oxobutyl)piperidin-4-ylidene]-4,10-dihydro-9-oxa-3-thiabenzo[f]azulen-6-yl}acetic acid], the ED50 in assay [1] is 0.312 mg/kg; on cerebral H1 receptor, 63.8 mg/kg. Moreover, the “ID50 (mg/kg)/ ED50 (mg/kg)” value at cerebral H1 receptor is on record as 204.5.

Consider `CSCCCN1CCC(=C2c3cc(CC(=O)O)ccc3OCc3ccsc32)CC1` [Compound 199, {4-[1-(3-Methylsulfanylpropyl)piperidin-4-ylidene]-4,10-dihydro-9-oxa-3-thiabenzo[f]azulen-6-yl}acetic acid], for which the ED50 in assay [1] was approximately 0.01 mg/kg. In addition, on cerebral H1 receptor, the ED50 was determined as 4.5 mg/kg and the “ID50 (mg/kg)/ ED50 (mg/kg)” value amounted to 450.0.

`O=C(O)CCc1cc2c(s1)C=Cc1ccccc1C2=C1CCNCC1` [Compound 209, 3-(4-Piperidin-4-ylidene-4H-1-thiabenzo[f]azulen-2-yl)propionic acid]: the ED50 in assay [1] was determined as 0.42 mg/kg. Moreover, on cerebral H1 receptor, the ED50 is more than 200 mg/kg and the “ID50 (mg/kg)/ ED50 (mg/kg)” value is given as more than 476.2.

Source of the values: US8377967B2, “Piperidine derivative” (Nippon Zoki Pharmaceutical Co., Ltd., priority 2008, dated 2013).
